Source: patent US20140357688A1, “METHOD FOR INHIBITING EZH2 EXPRESSION IN BREAST CANCER CELLS” (Yung Shin Pharm. Ind. Co., Ltd., priority 2013, published 2014)

Assays:
c-Cbl = assay: Western blot of c-Cbl phosphorylation and expression; type: cell-based, human
Protocol: (A) c-Cbl knockdown MDA-MB-468 cells were treated with 3 μM YC-1 for 4 h. Cell were harvested for detection of protein expression. (B) Cells were treated with 3 μM YC-1 for indicated time. Cells were collected and c-Cbl phosphorylation was detected. […] (D) Cells were pretreated with MG-132 and followed by 3 μM YC-1 induction for indicated time. Cells were harvested and lysed for immunoprecipitation assay. The association between c-Cbl and EZH2 were determined by western blotting analysis and probed with anti-EZH2 or anti-c-Cbl antibody. Membranes were stripped and reprobed with anti-c-Cbl or anti-EZH2 antibody to check the input. […] Then cells were collected and lysate protein was subjected for the detection of the c-Cbl-EZH2 complexes. Cells were lysed in PBS containing proteinase inhibitor and phosphatase inhibitors and sonication. Protein concentration was measured using the Bio-Rad protein assay kit (Bio-Rad Laboratories, Hercules, Calif., USA). Lysate protein was separated by electrophoresis of SDS-PAGE and transferred to Immobilon P membrane (EMD Millipore). The membranes were incubated with appropriate primary antibodies and horseradish peroxidase-conjugated secondary antibodies (EMD Millipore). The signaling was visualized using Chemiluminescence substrate kit (EMD Millipore) and collected by the Luminesence image analyzer, LAS4000 (Fuji Photo Film Co., Tokyo, Japan). The band intensities were analyzed and quantified by the Multi Gauge software (Fuji Photo Film).

Akt = assay: Western blot of Akt activation; type: cell-based, human; conditions: 3 μM YC-1
Protocol: (A) MDA-MB-468 cells were incubated with 3 μM YC-1 for indicated time. Cells were harvested for the detection of phospho-Akt (Ser473), Akt, and PCNA. (B) Cells were pretreated with LY294002 (LY, 10 μM) for 1 h followed by 3 μM YC-1 induction for 6 h. (C) MDA-MB-468 cells were incubated with 3 μM YC-1 for indicated time. Cells were harvested for the detection of phospho-CDK1 (Thr161), CDK1, phospho-EZH2 ([…]), EZH2, and β-actin expression with western blot analysis. Levels of EZH2 phosphorylation were calculated by phospho-EZH2 normalized by total EZH2. (D) Cells were treated with YC-1 for 6 h in the absence or presence of roscovitine (Rosc, 20 μM). Cells were harvested and analyzed by western blotting for protein expression. (E) CDK1 knockdown of MDA-MB-468 cells were induced with 3 μM YC-1 for 4 h and followed by western blot analysis.
Cells were lysed in PBS containing proteinase inhibitor and phosphatase inhibitors and sonication. Protein concentration was measured using the Bio-Rad protein assay kit (Bio-Rad Laboratories, Hercules, Calif., USA). Lysate protein was separated by electrophoresis of SDS-PAGE and transferred to Immobilon P membrane (EMD Millipore). […] The band intensities were analyzed and quantified by the Multi Gauge software (Fuji Photo Film).

What does the source list for `OCc1ccc(-c2nn(Cc3ccccc3)c3ccccc23)o1` [YC-1, 3-(5′-hydroxymethyl-2′-furyl)-1-benzyl indazole]?
c-Cbl protein expression (c-Cbl; 3 μM YC-1): inhibited; c-Cbl Tyr731 and Tyr774 phosphorylation (c-Cbl; 3 μM YC-1, after 1 h): rapid phosphorylation; Akt activation (Akt): activated
